One test concerns Pseudomonas aeruginosa. As to the kind of experiment: Antibacterial activity against Pseudomonas aeruginosa ATCC 27853. Type of test: functional, organism-based.
Test [1] has as its system Mycolicibacterium smegmatis. Description: Antibacterial activity against Mycobacterium smegmatis ATCC 607. Type of test: functional.
The test system of a further test is Candida albicans. Description: […] activity against Candida albicans ATCC 10231. The test is classed as functional.
The subject of test [2] is Salmonella enterica subsp. enterica serovar Gallinarum. As to the kind of experiment: Antibacterial activity against Salmonella gallinarum ATCC 9184. Type of test: functional.
In the next test the test system is Staphylococcus aureus. As to the kind of experiment: Antibacterial activity against Staphylococcus aureus ATCC 13709. The test is classed as functional.
The test system of the next test is Klebsiella pneumoniae. Description: Antibacterial activity against Klebsiella pneumoniae ATCC 10031. Type of test: functional.
The test system of another test is Escherichia coli. As to the kind of experiment: Antibacterial activity against Escherichia coli ATCC 9637. The test is classed as functional.

The structures appear in SMILES notation. Converted amounts (≈) assume the structure as drawn. The source made the active and inactive calls. No cut-off for these calls is given here.

As for `COc1ccc([C@H]2COc3c(ccc(O)c3CC=C(C)C)C2)c(O)c1`, the MIC result (in the test with Pseudomonas aeruginosa; in test [1]; in test [2]; in the test with Klebsiella pneumoniae; in the test with Escherichia coli) was “inactive” in each case. The MIC in the test with Candida albicans was determined as 12.5 µg/mL (≈ 36.7 µM); against Staphylococcus aureus, 6.25 µg/mL (≈ 18.4 µM).

As to `O=C1c2c(O)cc(O)cc2OC(c2ccc(O)cc2)C1C1C(=O)c2c(O)cc(O)cc2OC1c1ccc(O)cc1` (stereo unspecified) [CHAMAEJASMIN], the MIC result (with Pseudomonas aeruginosa; in test [1]; with Candida albicans; in test [2]; in the test on Klebsiella pneumoniae; with Escherichia coli) was “inactive” each time. Moreover, in the test with Staphylococcus aureus, the MIC is 12.5 µg/mL (≈ 23 µM).

As for `CN[C@@H]1[C@H](O[C@H]2[C@H](O[C@H]3[C@H](O)[C@@H](O)[C@H](N=C(N)N)[C@@H](O)[C@@H]3N=C(N)N)O[C@@H](C)[C@]2(O)C=O)O[C@@H](CO)[C@H](O)[C@H]1O.CN[C@@H]1[C@H](O[C@H]2[C@H](O[C@H]3[C@H](O)[C@@H](O)[C@H](N=C(N)N)[C@@H](O)[C@@H]3N=C(N)N)O[C@@H](C)[C@]2(O)C=O)O[C@@H](CO)[C@H](O)[C@H]1O.O=S(=O)(O)O.O=S(=O)(O)O.O=S(=O)(O)O` [STREPTOMYCIN SULFATE], the MIC entry with Pseudomonas aeruginosa and with Candida albicans was “inactive” in each case. The MIC in test [1] came to 1.25 µg/mL; in test [2], 50 µg/mL; in the test with Staphylococcus aureus, 5 µg/mL; with Klebsiella pneumoniae, 2.5 µg/mL; against Escherichia coli it was 5 µg/mL.

By MIC is commonly meant the lowest concentration that inhibits growth of the organism.

Values taken from ChEMBL document CHEMBL1147274, “Isoflavans and a Stilbene from Wood of the Decay-Resistant Tropical Tree Diphysa robinioides” (1986).
